By IC50 is commonly meant the midpoint of a concentration-inhibition curve. The Ki is a measure of affinity in units of concentration, obtained from inhibition or displacement.

Each structure is given as a SMILES string.

One series has as its target T1, Leukotriene C4 synthase (Cavia porcellus, UniProt A6XA80).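 Further: enzyme inhibition assay of leukotriene C4 synthase, using LTA4 as the substrate; in other assays of this panel Not Active means under 50% inhibition at 10 µM.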
T1 sequence (A6XA80 whole entry): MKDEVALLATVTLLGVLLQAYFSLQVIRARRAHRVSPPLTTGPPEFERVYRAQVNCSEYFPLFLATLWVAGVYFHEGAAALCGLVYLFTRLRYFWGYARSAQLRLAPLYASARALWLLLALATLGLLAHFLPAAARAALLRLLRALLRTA
The experiment in a line: biochemical. The series is classed as tissue-based, Lung.

Series [1] concerns the target Voltage-gated inwardly rectifying potassium channel KCNH2 (Homo sapiens, UniProt Q12809). Conditions: hek293. Further: in other assays of this panel Not Active means under 50% inhibition at 10 µM.
For series [2], the target named is T2, Cysteinyl leukotriene receptor 1 (Homo sapiens, UniProt Q9Y271). Further: in other assays of this panel Not Active means under 50% inhibition at 10 µM.
T2 sequence (Q9Y271 whole entry): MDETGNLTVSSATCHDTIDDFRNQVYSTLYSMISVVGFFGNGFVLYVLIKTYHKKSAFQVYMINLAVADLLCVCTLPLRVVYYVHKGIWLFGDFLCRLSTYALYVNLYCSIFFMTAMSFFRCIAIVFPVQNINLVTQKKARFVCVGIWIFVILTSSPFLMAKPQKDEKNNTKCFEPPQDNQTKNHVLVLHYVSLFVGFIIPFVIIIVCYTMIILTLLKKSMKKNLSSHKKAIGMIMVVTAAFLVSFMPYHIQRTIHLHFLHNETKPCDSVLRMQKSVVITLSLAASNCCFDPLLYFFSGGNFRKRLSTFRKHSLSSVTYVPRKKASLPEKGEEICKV
Type of series: cell membranes, CHO-K1, Membrane. The settings on record: cho-k1.

A short description of series [3]: DRUGMATRIX: Calcium Channel Type L, Benzothiazepine radioligand binding (ligand: [3H] Diltiazem). The series is classed as cell membranes, Rattus norvegicus, Wistar, Brain, Membrane. The settings on record: Not Active = under 50% inhibition at 10 µM.
Series [4] deals with T3, Neuropeptide Y receptor type 2 (Homo sapiens, UniProt P49146).
T3 sequence (P49146 whole entry): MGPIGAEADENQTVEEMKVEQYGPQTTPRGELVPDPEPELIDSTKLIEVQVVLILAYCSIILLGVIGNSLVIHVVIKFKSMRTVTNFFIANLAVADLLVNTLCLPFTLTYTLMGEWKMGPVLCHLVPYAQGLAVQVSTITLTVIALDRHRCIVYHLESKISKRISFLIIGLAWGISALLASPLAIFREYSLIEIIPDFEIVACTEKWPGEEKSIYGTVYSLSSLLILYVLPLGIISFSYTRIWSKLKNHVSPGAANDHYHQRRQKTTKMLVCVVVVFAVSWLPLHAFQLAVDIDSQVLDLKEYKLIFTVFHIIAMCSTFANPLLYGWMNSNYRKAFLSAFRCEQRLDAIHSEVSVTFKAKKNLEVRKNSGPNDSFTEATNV
The series is classed as cell membranes, Membrane. The settings on record: kan-ts.

Series [5] deals with T4, Cholecystokinin receptor type A (Homo sapiens, UniProt P32238).
T4 sequence (P32238 whole entry): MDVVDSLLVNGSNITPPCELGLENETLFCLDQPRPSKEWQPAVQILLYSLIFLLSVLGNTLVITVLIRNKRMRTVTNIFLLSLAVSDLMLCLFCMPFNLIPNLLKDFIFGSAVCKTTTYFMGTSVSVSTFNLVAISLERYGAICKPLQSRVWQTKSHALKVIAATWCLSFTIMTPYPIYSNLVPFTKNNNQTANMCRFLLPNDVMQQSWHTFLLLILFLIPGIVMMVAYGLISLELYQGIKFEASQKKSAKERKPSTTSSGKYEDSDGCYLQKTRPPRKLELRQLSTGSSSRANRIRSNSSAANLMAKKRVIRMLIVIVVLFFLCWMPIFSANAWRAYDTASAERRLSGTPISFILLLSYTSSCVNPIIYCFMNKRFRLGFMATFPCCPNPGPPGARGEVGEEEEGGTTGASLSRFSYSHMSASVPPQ
Type of series: cell membranes, Membrane. The settings on record: 1321-n1.

Another series deals with T5, B2 bradykinin receptor (Homo sapiens, UniProt P30411).
T5 sequence (P30411 whole entry): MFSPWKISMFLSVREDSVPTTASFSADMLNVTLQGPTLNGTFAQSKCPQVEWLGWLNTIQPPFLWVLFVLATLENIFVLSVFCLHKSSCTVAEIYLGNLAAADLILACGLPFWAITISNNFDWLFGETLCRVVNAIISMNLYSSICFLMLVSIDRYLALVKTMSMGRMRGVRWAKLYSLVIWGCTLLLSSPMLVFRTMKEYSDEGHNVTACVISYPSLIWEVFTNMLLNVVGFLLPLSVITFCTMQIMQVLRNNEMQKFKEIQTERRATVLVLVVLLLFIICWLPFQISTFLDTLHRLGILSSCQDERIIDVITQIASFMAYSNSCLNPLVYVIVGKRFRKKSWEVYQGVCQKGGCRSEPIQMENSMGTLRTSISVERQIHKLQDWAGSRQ
The series is classed as cell membranes, Membrane. The settings on record: chem-1.

Series [6] can be described thus: DRUGMATRIX: Tumor Necrosis Factor (TNF), Non-Selective radioligand binding (ligand: [125I] TNF-alpha). The series is classed as cell membranes, Membrane. The settings on record: u-937; Not Active = under 50% inhibition at 10 µM.

Sequence of Voltage-gated inwardly rectifying potassium channel KCNH2 (Q12809 whole entry): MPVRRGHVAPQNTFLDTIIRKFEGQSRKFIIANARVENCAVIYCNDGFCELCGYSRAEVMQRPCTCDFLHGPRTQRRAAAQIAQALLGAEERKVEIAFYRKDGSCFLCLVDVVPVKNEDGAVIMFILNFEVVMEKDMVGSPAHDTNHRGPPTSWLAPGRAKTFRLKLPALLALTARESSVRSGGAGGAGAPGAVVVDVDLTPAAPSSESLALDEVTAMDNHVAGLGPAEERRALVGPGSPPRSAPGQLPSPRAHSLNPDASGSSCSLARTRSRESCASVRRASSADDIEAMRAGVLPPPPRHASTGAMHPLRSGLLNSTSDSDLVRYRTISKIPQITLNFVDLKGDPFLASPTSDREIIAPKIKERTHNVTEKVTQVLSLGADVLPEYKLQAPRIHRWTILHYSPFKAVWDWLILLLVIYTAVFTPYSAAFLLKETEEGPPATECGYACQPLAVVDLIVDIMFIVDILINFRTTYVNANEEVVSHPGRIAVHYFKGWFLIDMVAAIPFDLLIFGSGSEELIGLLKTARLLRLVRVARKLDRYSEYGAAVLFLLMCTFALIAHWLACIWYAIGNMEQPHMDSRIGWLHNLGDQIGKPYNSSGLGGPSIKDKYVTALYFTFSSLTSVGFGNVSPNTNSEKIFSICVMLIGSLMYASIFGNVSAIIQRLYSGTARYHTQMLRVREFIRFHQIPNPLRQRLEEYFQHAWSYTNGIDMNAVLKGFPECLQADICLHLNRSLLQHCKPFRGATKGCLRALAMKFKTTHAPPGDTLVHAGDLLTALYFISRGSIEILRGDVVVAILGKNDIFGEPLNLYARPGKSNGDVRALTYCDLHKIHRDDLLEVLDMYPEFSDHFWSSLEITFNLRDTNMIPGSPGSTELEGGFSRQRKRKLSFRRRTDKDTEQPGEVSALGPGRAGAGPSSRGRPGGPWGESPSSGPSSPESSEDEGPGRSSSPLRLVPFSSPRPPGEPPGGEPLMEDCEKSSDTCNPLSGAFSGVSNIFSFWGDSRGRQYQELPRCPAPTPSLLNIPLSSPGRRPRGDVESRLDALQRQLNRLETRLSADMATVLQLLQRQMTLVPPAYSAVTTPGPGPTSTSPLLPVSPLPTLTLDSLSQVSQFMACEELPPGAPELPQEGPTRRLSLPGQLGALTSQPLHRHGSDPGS

With `COc1cc(/C=C/C(=O)O)ccc1O` [FERULATE], the IC50 entry (on Leukotriene C4 synthase; in series [1]; in series [2]; in series [3]; in series [4]; in series [5]) was “Not Active” each time. The IC50 entry (at B2 bradykinin receptor; in series [6]) was “Not Active” in each case. Besides, the Ki result in series [1], in series [3] and in series [6] was “Not Active” each time.

Turning to `CC(C)(C#N)c1cc(Cn2cncn2)cc(C(C)(C)C#N)c1` [ANASTROZOLE], the IC50 entry (at Leukotriene C4 synthase; in series [1]; in series [2]; in series [3]; in series [4]; in series [5]) was “Not Active” throughout. Further, the IC50 result (against B2 bradykinin receptor; in series [6]) was “Not Active” throughout. Also, the Ki result in series [1], in series [3] and in series [6] was “Not Active” each time.

With `COc1ccc(Cl)cc1C(=O)NCCc1ccc(S(=O)(=O)NC(=O)NC2CCCCC2)cc1` [GLYBURIDE], the IC50 result (on Leukotriene C4 synthase; in series [2]; in series [3]; in series [4]; in series [5]; on B2 bradykinin receptor) was “Not Active” throughout. Besides, the IC50 entry in series [6] is “Not Active”. Also, the inhibition constant Ki entry in series [3] and in series [6] was “Not Active” in each case.

Regarding `CC(C)NCC(O)COc1ccc(CC(N)=O)cc1` (configuration not stated) [ATENOLOL], the IC50 result (on Leukotriene C4 synthase; in series [2]; in series [3]; in series [4]; in series [5]; against B2 bradykinin receptor) was “Not Active” each time. Besides, in series [6], the IC50 entry is “Not Active”. Moreover, the Ki entry in series [3] and in series [6] was “Not Active” throughout.

For `O=C(O)COC(=O)Cc1ccccc1Nc1c(Cl)cccc1Cl` [ACECLOFENAC], the 50% inhibitory concentration (IC50) entry (on Leukotriene C4 synthase; in series [1]; in series [2]; in series [3]; in series [4]; in series [5]) was “Not Active” in each case. Moreover, the IC50 entry (against B2 bradykinin receptor; in series [6]) was “Not Active” each time. Besides, the Ki entry in series [1], in series [3] and in series [6] was “Not Active” in each case.

`Cl.NC[C@H]1CC[C@H](C(=O)Oc2ccc(CCC(=O)O)cc2)CC1` [CETRAXATE HYDROCHLORIDE]: the IC50 result (against Leukotriene C4 synthase; in series [1]; in series [2]; in series [3]; in series [4]; in series [5]) was “Not Active” each time. For the same molecule, the IC50 result (on B2 bradykinin receptor; in series [6]) was “Not Active” each time. For the same molecule, the Ki result in series [1], in series [3] and in series [6] was “Not Active” each time.

On to `CC(=O)[C@]1(O)Cc2c(O)c3c(c(O)c2[C@@H](O[C@H]2C[C@H](N)[C@H](O)[C@H](C)O2)C1)C(=O)c1ccccc1C3=O` [IDARUBICIN], for which the IC50 result (at Leukotriene C4 synthase; in series [1]; in series [2]; in series [3]; in series [4]; in series [5]) was “Not Active” in each case. Also, the IC50 result (against B2 bradykinin receptor; in series [6]) was “Not Active” throughout. The Ki result in series [1], in series [3] and in series [6] was “Not Active” in each case.

On to `COc1ccccc1OCCNCC(O)COc1cccc2[nH]c3ccccc3c12` (configuration not stated) [CARVEDILOL], for which the concentration for half-maximal inhibition (IC50) result against Leukotriene C4 synthase was “Not Active”; in series [2], “Not Active”; in series [3] (read-out: IC50), 621 nM; in series [4], “Not Active”; in series [5], “Not Active”; on B2 bradykinin receptor, “Not Active”. Moreover, the IC50 result in series [6] is on record as “Not Active”. For the same molecule, the figures for the Ki in series [3] (read-out: Ki) and in series [6] were 552 nM and “Not Active”, respectively.

On to `CCN1C[C@]2(COC)[C@H](O)C[C@H](OC)[C@@]34[C@@H]5C[C@@]6(O)[C@H](OC(=O)c7ccccc7)[C@@H]5[C@@](OC(C)=O)([C@@H]([C@H](OC)[C@H]23)[C@@H]14)[C@@H](O)[C@@H]6OC` [ACONITINE], for which the IC50 result (at Leukotriene C4 synthase; in series [2]; in series [3]; in series [4]; in series [5]; on B2 bradykinin receptor) was “Not Active” in each case. Also, in series [6], the IC50 entry was “Not Active”. Also, the Ki result in series [3] and in series [6] was “Not Active” throughout.

As to `CCN1CCN(C(=O)N[C@@H](C(=O)N[C@@H]2C(=O)N3[C@@H]2SC(C)(C)[C@@H]3C(=O)O)c2ccccc2)C(=O)C1=O` [PIPERACILLIN], the IC50 result (against Leukotriene C4 synthase; in series [2]; in series [3]; in series [4]; in series [5]; against B2 bradykinin receptor) was “Not Active” in each case. In addition, in series [6], the IC50 result was “Not Active”. The Ki entry in series [3] and in series [6] was “Not Active” each time.

`CC[C@H]1OC(=O)[C@H](C)[C@@H](O[C@H]2C[C@@](C)(OC)[C@@H](O)[C@H](C)O2)[C@H](C)[C@@H](O[C@@H]2O[C@H](C)C[C@H](N(C)C)[C@H]2O)[C@](C)(O)C[C@@H](C)C(=O)[C@H](C)[C@@H](O)[C@]1(C)O` [ERYTHROMYCIN]: the IC50 result (against Leukotriene C4 synthase; in series [2]; in series [3]; in series [4]; in series [5]; at B2 bradykinin receptor) was “Not Active” throughout. Besides, the IC50 result in series [6] is “Not Active”. In addition, the Ki result in series [3] and in series [6] was “Not Active” throughout.

Consider `NC(N)=Nc1nc(CSCCC(N)=NS(N)(=O)=O)cs1` [FAMOTIDINE], for which the IC50 entry (against Leukotriene C4 synthase; in series [2]; in series [3]; in series [4]; in series [5]; against B2 bradykinin receptor) was “Not Active” in each case. Further, the IC50 entry in series [6] is given as “Not Active”. Also, the Ki entry in series [3] and in series [6] was “Not Active” throughout.

Take `NS(=O)(=O)c1cc(C(=O)O)c(NCc2ccco2)cc1Cl` [FUROSEMIDE]: the IC50 result (at Leukotriene C4 synthase; in series [2]; in series [3]; in series [4]; in series [5]; against B2 bradykinin receptor) was “Not Active” each time. Besides, the IC50 entry in series [6] is reported as “Not Active”. Further, the Ki result in series [3] and in series [6] was “Not Active” each time.

(Values after ChEMBL document CHEMBL1909046, “DrugMatrix in vitro pharmacology data”.)
